Assay results taken from US20260150838A1, “ASCAROSIDE DERIVATIVES” (Ascribe Bioscience Inc., priority 2023, published 2026).
Values joined by “and” are separate entries in the source; they are usually repeats but may differ in a detail not shown here. Identical values can stand only once.

Key:
Bipolaris sorokiniana = experiment: wheat pathogen assay (fungal infection of wheat seedlings); type: in vivo; settings: FIG. 1; for infection symptoms (symptomatic areas relative to the total leaf area) compared to mock: wheat cv. Louise sprayed with 1 μM solution in 0.1% Tween-20, inoculated 48 hours later with Bipolaris sorokiniana spores; for efficacy in reducing fungal infection relative to ascr #18: wheat, 1 μM solutions
Protocol: The products of Examples 1, 1a to 1, 1c (hereafter referred to as compounds 1a, 1b, and 1c) were evaluated in a wheat pathogen assay to assess the potential of these analogs to prevent crop damage caused by a fungal pathogen. Wheat seeds of cv. Louise were planted in potting soil and grown for two weeks in a growth chamber at 26° C. and 23° C., respectively, with 16 hours of light. After two weeks, the plants were sprayed with a 1 μM solution of ascr #18, or compounds 1a, 1b, or 1c containing 0.1% (v/v) Tween®-20 in water solution, or with a mock solution only containing 0.1% (v/v) Tween®-20. 48 hours after treatment, the wheat plants were inoculated with a Bipolaris sorokiniana spore solution (with 15000 spores/ml) and placed in a dark grow tent with high humidity (>80% RH) for 24 hours at 23° C. Subsequently, the plants were moved to a high humidity environment (>80% RH) at 23° C. and 12 hours of light and dark until fungal infection was visible on the leaves of the mock-treated plants (usually after about four days). Symptoms were evaluated by photographing the infected leaves and processing the images through machine learning image analysis software (Ilastik) to determine the symptomatic areas relative to the total leaf area. […] The infection levels in the treated plants were similar to those treated with 1 μM ascr #18. […] In FIG. 1, error bars depict standard error of the mean for a total n≥35 plants across 4 independent experiments. Outliers were removed with the GraphPad ROUT method, and significance determined by a one-way ANOVA test.

[1] = uptake and metabolism of ascaroside amides in alfalfa seedlings (LC-MS of tissue extracts); type: in vivo; settings: for hydrolysis or metabolism by the plant: alfalfa plants, timeframe shown (24 h + 4 h)
Protocol: Ascaroside analogs 1a, 1b, and 1c were also evaluated in alfalfa seedlings to assess whether plants take up these analogs and whether they are hydrolyzed or metabolized to other ascarosides (specifically to ascr #18 and/or ascr #18 metabolites). The ascr #18 metabolism was evaluated by assaying the plant tissues for the known ascaroside metabolite ascr #9.
(§1) Alfalfa seeds were germinated in the dark on culture plates (10 seeds per plate) containing Gelzan growth medium and were allowed to grow for 3-4 days before treatment. Treatment consisted of flooding the plates with 10 μM aqueous solutions of one of the ascaroside analogs 1a, 1b, or 1c, with ascr #18 (as a positive control), or with plain water as a mock treatment (5 ml total volume, solutions prepared in MQ water). Each experiment was performed in duplicate. After 24 hours, the plates were moved to an illuminated growth chamber for 4 hours before sampling.
Sprouts were collected, thoroughly rinsed with MQ water, dried, flash-frozen, and homogenized. The homogenized tissues were extracted with 100% ethanol and the extracts were analyzed using high-resolution liquid chromatography-mass spectrometry (LC-MS). LC-MS analysis was performed using a Dionex 3000 UPLC coupled with a Thermo Q Exactive high-resolution mass spectrometer equipped with a HESI ion source. To measure ascarosides, samples were chromatographed using an Agilent Zorbax Eclipse column (150 mm×2.1 mm, particle size 1.98 μm) maintained at 40° C. with a 0.5 ml/min flow rate. Solvent A: 0.1% formic acid in water; Solvent B: 0.1% formic acid in acetonitrile. A solvent mixture using 1% B was used for 1.5 min after injection, followed by a linear gradient up to 99% B at 9.5 min, followed by 0.75 min of 99% B, then back to 1% B over 0.5 min, and finally held at 1% B for an additional 1.25 min to re-equilibrate the column (total time: 12 min, with needle washing and file writing: ˜14 min). Mass spectrometer parameters: spray voltage (−3.0 kV or +3.5 kV); capillary temperature 380° C.; probe heater temperature 400° C.; sheath, auxiliary, and sweep gas 60, 20, and 2 AU, respectively—S-Lens RF level: 50, resolution 120,000 at m/z 200, AGC target 3E6. Samples were injected and analyzed in negative electrospray ionization mode with an m/z range of 100-1000. Ascr #18 (C17H32O6) ionizes in negative ion mode as C17H31O6, m/z=331.2126, retention time 6 minutes using the above chromatographic conditions. Samples were also analyzed in positive ionization mode.
(§2) The treatment solutions used to treat the sprouts were also analyzed assayed and the results are shown in the Column of Table 1 labeled “Input” In each case, only the analog, or ascr #18 respectively is detected, indicating the molecules are stable in the treatment solutions.

[2] = LC-MS analysis of the treatment solutions (Input); type: physicochemical; settings: 10 μM aqueous treatment solutions used to treat the sprouts; Rep1/Rep2
Protocol: as §1
Sprouts were collected, thoroughly rinsed with MQ water, dried, flash-frozen, and homogenized. The homogenized tissues were extracted with 100% ethanol and the extracts were analyzed using high-resolution liquid chromatography-mass spectrometry (LC-MS). […] Samples were injected and analyzed in negative electrospray ionization mode with an m/z range of 100-1000. […] Samples were also analyzed in positive ionization mode.
as §2

hydrolysis or metabolism by the plant [1] | uptake by plants ([1]; alfalfa sprouts, 10 μM) | Input (LCMS detector response for diagnostic ion of the analog or ascr#18) [2] | SMILES | infection symptoms (symptomatic areas relative to the total leaf area) compared to mock (Bipolaris sorokiniana) | efficacy in reducing fungal infection relative to ascr #18 (Bipolaris sorokiniana) | half-life in the plant relative to ascr #18 ([1]; alfalfa, inferred from LC-MS data of Table 1)
hydrolyzed or metabolized by the plant |  |  | C[C@H](CCCCCCCCC(=O)NCCO)O[C@@H]1O[C@@H](C)[C@H](O)C[C@H]1O [1b, (R)-10-(((2R,3R,5R,6S)-3,5-dihydroxy-6-methyltetrahydro-2H-pyran-2-yl)oxy)-N-(2-hydroxyethyl)-undecanamide] | reduced infection symptoms | comparable to that of ascr #18 | 
not hydrolyzed or metabolized | taken up by plants | 4.03E+06 and 6.78E+06 | CCN(CC)C(=O)CCCCCCCC[C@@H](C)O[C@@H]1O[C@@H](C)[C@H](O)C[C@H]1O [compound 1a, (R)-10-(((2R,3R,5R,6S)-3,5-dihydroxy-6-methyltetrahydro-2H-pyran-2-yl)oxy)-N,N-diethylundecanamide] | reduced infection symptoms | comparable to that of ascr #18 | longer half life than ascr #18 or the other analogs tested
hydrolyzed or metabolized by the plant |  |  | C[C@H](CCCCCCCCC(N)=O)O[C@@H]1O[C@@H](C)[C@H](O)C[C@H]1O [1c, (R)-10-(((2R,3R,5R,6S)-3,5-dihydroxy-6-methyltetrahydro-2H-pyran-2-yl)oxy)-undecanamide] | reduced infection symptoms | comparable to that of ascr #18 | 
